Reference: patent US20240050513A1, “COMPOSITION FOR PREVENTING, AMELIORATING, OR TREATING DISEASE CAUSED BY PROTEIN NITRATION […] WITH TERMINAL TYROSINE AS EFFECTIVE COMPONENT” (INDUSTRY-ACADEMIC COOPERATION FOUNDATION GYEONGSANG …, priority 2021, published 2024)

Assays:
[1] = test system: chronic immobilization stress C57BL/6 mice; assay: Cognitive function (ORT/OLT) in chronic immobilization stress model; assay type: in vivo; conditions: stress group, peptide-supplemented diet vs normal diet
Protocol: To analyze the long-term memory capacity of animals following the peptide diet of the present invention, both the object recognition test (ORT) and object location recognition test (OLT) were conducted (FIG. 1). The tests consisted of three phases: habituation, familiarization, and test. During the habituation phase, the animals were acclimated to the testing apparatus for 10 minutes per day over two days. On the third day at the familiarization phase, the animals were allowed to explore two identical objects for 10 minutes. Subsequently, on the fourth day at the test phase, one of the objects was replaced with a novel object, and the animals were allowed to explore for 10 minutes, with result recorded during the initial 5 minutes was used as test data. The object recognition test (ORT) index was calculated using the following formula.
Discrimination index=(N−F)/(N+F) • N: Time spent for exploring new object • F: Time spent for exploring familiar object
After 24 hours of performing the ORT, the location of the familiar object was changed, and the animals were allowed to explore for 5 minutes. During the total exploration time, the ratio of time spent exploring the object with a changed location was calculated to determine the object location recognition test (OLT) index.
A total of 28 seven-week-old male C57BL/6 mice were divided into two groups: a control group and a stress group. […]

[2] = test system: kainic acid-treated ICR mice; assay: Seizure level in kainic acid epileptic seizure model; assay type: in vivo
Protocol: Four-week-old male ICR mice were fed with normal diet, tyrosine (L-Tyr), or tyrosine-containing peptide (3xYQ, 1xYW, or 3xYW) for one week. […] Kainic acid (KA) was dissolved in saline by heating in a water bath, resulting in a 4.5 mg/ml KA solution. The resulting KA solution was then intraperitoneally injected at a dose of 36 mg/kg, and seizure level and symptoms were recorded for 2 hours.

[3] = test system: glutamine synthetase (GS); assay: Hippocampal glutamine synthetase activity in kainic acid epileptic seizure model; conditions: survived mice after kainic acid
Protocol: Kainic acid (KA) was dissolved in saline by heating in a water bath, resulting in a 4.5 mg/ml KA solution. The resulting KA solution was then intraperitoneally injected at a dose of 36 mg/kg, and seizure level and symptoms were recorded for 2 hours. The brain tissues (prefrontal cortex and hippocampus) of the mice that survived 16 hours or 5 days after the KA injection were collected.
To a 96-well plate, 2 μl of hippocampal homogenate was added, and 50 μl of 50 mM imidazole-HCl buffer (pH 6.8) were added to adjust the volume to 50 μl. Then, 50 μl of GS assay buffer (50 mM imidazole-HCl, pH 6.8, 25 mM L-glutamine, 12.5 mM hydroxylamine, 12.5 mM sodium arsenate, 1 mM MnCl2, and 0.08 mM ADP) were added and the reaction was allowed to occur at 37° C. for approximately 40 minutes. […] To terminate the reaction, 100 μl of stop solution (90 mM FeCl3, 1.8 N HCl, and 1.45% w/v trichloroacetic acid) were added to both the samples and the standard substance, and the absorbance was measured at 560 nm. The GS activity in each sample was determined by comparing it with the standard curve. GS activity was expressed as the generation amount of γ-glutamylhydroxamate, which is produced as a final product, and described in unit of μM/min/μg protein.

[4] = test system: glutamine synthetase (GS); assay: GS activity and GS tyrosine nitration in PFC, chronic immobilization stress model; assay type: in vivo, C57BL/6 mice; conditions: stress group
Protocol: Using the prefrontal cortex (PFC) lysate samples from mice obtained after the completion of chronic immobilization stress, GS activity and GS expression level were measured by following the method described above.
Furthermore, the level of tyrosine nitration within GS was measured by using immunoprecipitation (IP)-WB. The immunoprecipitation analysis of tyrosine-nitrated GS was performed using an anti-nitrotyrosine antibody (ab61392, Abcam) and Protein A/G PLUS-Agarose (Santa Cruz) according to the manufacturer's protocol.

[5] = test system: chronic immobilization stress C57BL/6 mice; conditions: stress group, peptide diet vs normal diet
Protocol: A total of 28 male C57BL/6 mice at 7 weeks of age were divided into two groups: a control group (CTL) and a stress group (STR). The stress group was subjected to chronic immobilization stress for 15 days. Specifically, each mouse in the stress group was individually placed in a restrainer for 2 hours daily from […] to induce chronic immobilization stress. The control group (CTL) and stress group (STR) were further classified based on their diets. […] After the completion of the 15-day chronic immobilization stress, the mice were subjected to a sucrose preference test (SPT). Blood samples and prefrontal cortex (PFC) tissues were collected from the mice for subsequent test.
For the analysis of anti-depressive effect, blood and PFC tissues were collected from mice that underwent chronic immobilization stress. The blood collected from mice was centrifuged at 1,000×g for 10 minutes at 4° C. to separate the plasma, and the supernatant was collected and diluted 1/20 with PBS to prepare a sample. The corticosterone concentration in the plasma was then measured using the Corticosterone EIA kit (Cayman) by following the manufacturer's instructions.
In addition, the plasma diluted with PBS at a ⅓ ratio and the PFC tissue lysate (50 μg) were prepared. The ROS/RNS (reactive oxygen species/reactive nitrogen species) level in the plasma and PFC tissues was measured using the ROS/RNS assay kit (Cell Biolabs) according to the manufacturer's instructions.
In addition, the depression was evaluated by measuring the sucrose preference of mice that had undergone 15 days of chronic immobilization stress. The sucrose preference test was conducted over a total of 4 days. Equal amounts of 0.1 M sucrose solution and water were provided in identical bottles of the same size and shape. On the first day, mice were given access to 0.1 M sucrose solution and water for 24 hours. On the second day, the positions of the sucrose solution and water bottles were switched, and mice were given access for 24 hours. On the third day, no sucrose solution or water was provided. On the fourth day, mice were again given access to equal amounts of 0.1 M sucrose solution and water for 3 hours, the positions were then switched, and access was provided for another 3 hours. The amount of sucrose solution and water consumed during the 6-hour period on the fourth day was measured, and the sucrose preference (%) was calculated according to the following formula.
Sucrose preference (%)=Sucrose intake amount/(Water intake amount+Sucrose intake amount)×100

## tyrosine-tryptophan [YW]
[1]
  cognitive function: enhanced cognitive function
[2]; 1xYW diet one week vs normal diet
  seizure level: statistically significantly decreased
[3]; 1xYW
  activity of the glutamine synthetase in the hippocampal tissue: increased
[3]; 3xYW
  activity of the glutamine synthetase in the hippocampal tissue: increased

## N[C@@H](Cc1ccc(O)cc1)C(=O)O [L-Tyr, L-tyrosine, reference compound]
[2]; 5xL-Tyr diet vs normal diet
  seizure level: statistically significantly decreased

## glutamine-tyrosine [QY]
[4]; IP-WB, peptide diet vs normal diet
  tyrosine nitration level of GS: statistically significant decrease
[4]; peptide diet (330 mg/kg) vs normal diet
  GS activity: statistically significant increase
[5]
  ROS/RNS level in PFC tissue: decreased
  sucrose preference: increased
